Holding throughout (assay): relative viability (nuclei count vs DMSO), 5 days (fraction); higher = more cells survive
Compound in the assay “Venetoclax + Crizotinib”: CC1(C)CCC(CN2CCN(c3ccc(C(=O)NS(=O)(=O)c4ccc(NCC5CCOCC5)c([N+](=O)[O-])c4)c(Oc4cnc5[nH]ccc5c4)c3)CC2)=C(c2ccc(Cl)cc2)C1 [Venetoclax] + C[C@@H](Oc1cc(-c2cnn(C3CCNCC3)c2)cnc1N)c1c(Cl)ccc(F)c1Cl [Crizotinib] (partner 1 µM)
Summed up:
(§1)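 Lung cancer cell lines in 1536-well plates were dosed by pin tool the day after seeding, either with one drug alone or with a fixed anchor-drug dose plus five library-drug doses (not always all listed) in √10 steps. After 5 days, cells were fixed and their nuclei stained in one step (final 0.05% Triton X-100, 1% formaldehyde, 1 ug/ml Hoechst), then counted on 4× images. Relative viability is the nuclei count in treated wells divided by that in vehicle wells. Values are medians of duplicate plates.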

Compound in the assay “Venetoclax + Dasatinib”: CC1(C)CCC(CN2CCN(c3ccc(C(=O)NS(=O)(=O)c4ccc(NCC5CCOCC5)c([N+](=O)[O-])c4)c(Oc4cnc5[nH]ccc5c4)c3)CC2)=C(c2ccc(Cl)cc2)C1 [Venetoclax] + Cc1nc(Nc2ncc(C(=O)Nc3c(C)cccc3Cl)s2)cc(N2CCN(CCO)CC2)n1 [Dasatinib] (partner 0.075 µM)
Summed up: as §1

Compound in the assay “Venetoclax + Pemetrexed”: CC1(C)CCC(CN2CCN(c3ccc(C(=O)NS(=O)(=O)c4ccc(NCC5CCOCC5)c([N+](=O)[O-])c4)c(Oc4cnc5[nH]ccc5c4)c3)CC2)=C(c2ccc(Cl)cc2)C1 [Venetoclax] + Nc1nc2[nH]cc(CCc3ccc(C(=O)N[C@@H](CCC(=O)O)C(=O)O)cc3)c2c(=O)[nH]1 [Pemetrexed] (partner 0.2 µM)
Summed up: as §1

Compound in the assay “Selumetinib + Luminespib”: Cn1cnc2c(F)c(Nc3ccc(Br)cc3Cl)c(C(=O)NOCCO)cc21 [Selumetinib] + CCNC(=O)c1noc(-c2cc(C(C)C)c(O)cc2O)c1-c1ccc(CN2CCOCC2)cc1 [Luminespib] (partner 0.01 µM)
Summed up:
as §1

Consider UMC-11, for which the relative viability with Venetoclax + Crizotinib (first compound 0.01 µM) was found to be 0.625; with Venetoclax + Crizotinib (first compound 0.03162 µM), 0.622; with Venetoclax + Crizotinib (first compound 0.1 µM), 0.653; with Venetoclax + Crizotinib (first compound 0.3162 µM), 0.636; with Venetoclax + Crizotinib (first compound 1 µM) it was 0.614; in the assay with Venetoclax + Dasatinib (first compound 0.01 µM), 0.45. The relative viability is 0.518 in the assay with Venetoclax + Dasatinib (first compound 0.03162 µM); 0.463 in the assay with Venetoclax + Dasatinib (first compound 0.1 µM); 0.505 with Venetoclax + Dasatinib (first compound 0.3162 µM); 0.491 in the assay with Venetoclax + Dasatinib (first compound 1 µM); 0.782 with Venetoclax + Pemetrexed (first compound 0.01 µM); 0.666 with Venetoclax + Pemetrexed (first compound 0.03162 µM). The relative viability stood at 0.731 with Venetoclax + Pemetrexed (first compound 0.1 µM); 0.752 with Venetoclax + Pemetrexed (first compound 0.3162 µM); 0.736 with Venetoclax + Pemetrexed (first compound 1 µM); 1.14 in the assay with Selumetinib + Luminespib (first compound 0.02 µM); 0.869 in the assay with Selumetinib + Luminespib (first compound 0.06325 µM); 1.08 in the assay with Selumetinib + Luminespib (first compound 0.2 µM). Also, the relative viability in the assay with Selumetinib + Luminespib (first compound 0.6325 µM) came to 0.967.

The values above are taken from the supplement of paper PMC10307832.
